In PMC11348465, “Pharmacochemical Study of Multitarget Amino Acids’ Hybrids: Design, Synthesis, In vitro, and In silico Studies” (Medicinal Chemistry (Shariqah (United Arab Emirates), 2024):

Experiments:
[1] = target: T1, soybean lipoxygenase (LOX-1) (Glycine max, UniProt P08170); experiment: Soybean lipoxygenase inhibition study; assay type: biochemical; conditions: for LOX inhibition (%): % inhibition at 100 µM; for IC50: read-out: LOX inhibition (IC50)
T1 construct: purchased Sigma Chemical, Co. (St Louis, MO, USA)
T1 sequence (P08170 1-839): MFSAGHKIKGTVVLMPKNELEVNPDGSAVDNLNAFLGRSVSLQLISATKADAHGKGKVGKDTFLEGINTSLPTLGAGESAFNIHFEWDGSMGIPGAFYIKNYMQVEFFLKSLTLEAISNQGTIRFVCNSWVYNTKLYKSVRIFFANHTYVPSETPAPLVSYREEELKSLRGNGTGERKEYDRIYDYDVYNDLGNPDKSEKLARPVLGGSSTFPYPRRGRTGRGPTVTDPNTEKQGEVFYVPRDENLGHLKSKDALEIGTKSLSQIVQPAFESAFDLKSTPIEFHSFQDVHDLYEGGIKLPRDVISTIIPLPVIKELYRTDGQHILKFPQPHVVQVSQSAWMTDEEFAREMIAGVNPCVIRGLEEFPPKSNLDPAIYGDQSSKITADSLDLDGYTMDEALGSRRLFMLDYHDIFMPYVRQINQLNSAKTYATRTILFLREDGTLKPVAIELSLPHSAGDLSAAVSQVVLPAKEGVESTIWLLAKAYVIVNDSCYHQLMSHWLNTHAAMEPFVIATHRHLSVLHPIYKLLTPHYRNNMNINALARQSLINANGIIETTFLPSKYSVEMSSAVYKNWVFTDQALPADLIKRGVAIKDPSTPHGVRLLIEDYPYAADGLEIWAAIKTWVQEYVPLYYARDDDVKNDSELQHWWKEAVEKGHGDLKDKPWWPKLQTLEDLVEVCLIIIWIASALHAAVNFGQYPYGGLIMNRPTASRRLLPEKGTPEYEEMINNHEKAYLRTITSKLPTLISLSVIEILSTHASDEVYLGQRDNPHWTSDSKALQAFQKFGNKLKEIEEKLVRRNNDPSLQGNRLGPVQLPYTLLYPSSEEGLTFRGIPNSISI
Experimental: Our group evaluated an in vitro study as reported previously. The tested hybrids were incubated at room temperature with sodium linoleate (100 µM) and 200 µL of enzyme solution (1/9 X 10^-4 w/v in saline). […] Different concentrations were used for the determination of IC50. A blank determination was used as a negative control.
Due to the limited work on sufficiently purified human ALOX-5 isoenzyme, most of the published research was performed on the soybean homolog. […] This study used the soybean isoenzyme LOX-1, which exerts maximal activity at pH 9.0 [72].

[2] = Inhibition of linoleic acid peroxidation (AAPH-induced)
Experimental: Our group evaluated the in vitro study as reported previously. Ten 16 mM sodium linoleate solution microliters were added to the UV cuvette containing 93 µL of a 0.05 M phosphate buffer, pH 7.4, and 10 µL of the tested compounds (final concentration 100 µM). The oxidation reaction started at 37 °C under air by adding 50 µL of the free radical initiator AAPH (40 mM). Oxidation was carried out and monitored at 234 nm. DMSO under the same conditions was used as a negative control. Trolox was used as the appropriate standard (positive control). The results are given in Table S1 in the supplementary material.
We used the water-soluble 2, 2’-azobis(2-amidinopropane) hydrochloride (AAPH) to generate in vitro peroxyl radicals through spontaneous thermal decomposition, which resembles cellular lipid peroxidation due to the activity of the undertaken radicals. The anti-lipid peroxidation activities were compared to a well-known antioxidant, i.e., Trolox (Table S1 in the supplementary material). […] In general, the anti-lipid peroxidation ranged from 8-99%. Except for acids 11, 12, 17, 19, 21, 22, 24, 25, and 28, which present high antioxidant activities (on the high % level), the other cinnamic acids present low or medium activity.

[3] = target: T2, ovine COX-2 (Ovis aries, UniProt P79208); experiment: Cyclooxygenase-2 inhibition study; assay type: biochemical; conditions: for IC50: read-out: COX-2 inhibition (IC50)
T2 construct: purchased Cayman (USA)
T2 sequence (P79208 17-603): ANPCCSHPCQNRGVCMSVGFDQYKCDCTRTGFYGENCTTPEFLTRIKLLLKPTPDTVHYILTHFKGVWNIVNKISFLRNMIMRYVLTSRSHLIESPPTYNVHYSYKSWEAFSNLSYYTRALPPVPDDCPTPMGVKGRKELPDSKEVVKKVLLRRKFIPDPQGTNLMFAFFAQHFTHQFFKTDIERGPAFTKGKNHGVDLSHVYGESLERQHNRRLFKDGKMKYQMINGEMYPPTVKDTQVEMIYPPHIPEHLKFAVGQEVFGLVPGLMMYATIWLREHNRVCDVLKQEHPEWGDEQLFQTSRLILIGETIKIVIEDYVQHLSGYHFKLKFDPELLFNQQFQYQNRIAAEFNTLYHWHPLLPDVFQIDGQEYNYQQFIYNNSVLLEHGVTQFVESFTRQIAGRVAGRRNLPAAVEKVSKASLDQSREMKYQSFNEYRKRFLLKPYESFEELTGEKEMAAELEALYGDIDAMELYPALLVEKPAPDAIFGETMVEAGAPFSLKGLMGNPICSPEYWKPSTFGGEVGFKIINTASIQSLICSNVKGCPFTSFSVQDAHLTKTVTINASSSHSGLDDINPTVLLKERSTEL
Experimental: The in vitro study of cyclooxygenase (COX) activity was determined by using arachidonic acid (AA) as the substrate and N,N,N’,N’-tetramethylphenylenediamine (TMPD) as the co-substrate. […] The absorption due to the spontaneous oxidation of TMPD was subtracted from the initial rate of oxidation observed in the presence of AA. […] A blank determination was used first to serve as a negative control. Indomethacin was used as a reference COX-2 inhibitor (positive control).
The role of COX-2 in neurodegenerative diseases has been reported, and COX-2 inhibition is considered of high importance as a therapeutic tool. The designed derivatives were tested for their COX-2 inhibition activity on the ovine COX-2 enzyme. […] Indomethacin was used as a reference compound.

SMILES	AAPH inhibition (%, at 100 µM) [2] [%]	IC50 [3] [µM]	further results
CCOC(=O)CNC(=O)/C=C/c1cccc2ccccc12 [Compound 17a]			LOX inhibition (%) [1]: 23%
CCOC(=O)CNC(=O)/C=C/c1ccc(F)cc1 [Compound 27a]	78		
O=C(O)/C=C/c1ccc(Cl)cc1 [Compound 16]			inhibition at 100 µM [3]: 46%
CC(=O)Oc1ccc(/C=C/C(=O)O)cc1 [Compound 30, (E)-3-(4-acetoxyphenyl) acrylic acid]	33		inhibition at 100 µM ([1]; read-out: LOX inhibition (%)): 23%
Cc1c(C)c2c(c(C)c1O)CCC(C)(C(=O)O)O2 (stereo not shown) [Trolox, reference compound]	92		
O=C(O)/C=C/c1ccc(Br)cc1 [Compound 14]	13	100	
COC(=O)CCCNC(=O)/C=C/c1ccc(Cl)cc1 [Compound 16b]	8	92.5	
COC(=O)CC[C@H](NC(=O)/C=C/c1ccc(C(F)(F)F)cc1)C(=O)OC [Compound 13c]	37		IC50 [1]: 80 µM
COC(=O)CC[C@H](NC(=O)/C=C/c1ccc(C#N)cc1)C(=O)OC [Compound 26c]			LOX inhibition (%) [1]: 10%
COC(=O)CCCNC(=O)/C=C/c1ccc2c(c1)OC(C)(C)O2 [Compound 29b]			COX-2 inhibition (%) ([3]; % inhibition at 100 µM): 4%
COC(=O)CC[C@H](NC(=O)/C=C/c1cccc(Br)c1)C(=O)OC [Compound 15c]			IC50 [1]: 75 µM
COC(=O)CCCNC(=O)/C=C/c1ccc(F)cc1 [Compound 27b]	22	75	
COC(=O)CCCNC(=O)/C=C/c1ccc(Br)cc1 [Compound 14b]	11		LOX inhibition (%) [1]: 12%
COC(=O)CCCNC(=O)/C=C/c1ccc(O)cc1 [Compound 25b]	66		LOX inhibition (%) [1]: 10%
COC(=O)CC[C@H](NC(=O)/C=C/c1ccccc1)C(=O)OC [Compound 22c]	39		LOX inhibition (%) [1]: 10%
COC(=O)CC[C@H](NC(=O)/C=C/c1cccs1)C(=O)OC [Compound 21c]	41		IC50 [1]: 100 µM
CCOC(=O)CNC(=O)/C=C/c1ccc(C#N)cc1 [Compound 26a]	37	77.5	
O=C(O)/C=C/c1cccc2ccccc12 [Compound 17]	78		
COC(=O)CC[C@H](NC(=O)/C=C/c1ccc(Cl)cc1)C(=O)OC [Compound 16c]	26		
COc1cc(/C=C/C(=O)O)ccc1O [Compound 24]	86		inhibition at 100 µM [3]: 14%
CCOC(=O)CNC(=O)/C=C/C=C/c1ccccc1 [Compound 23a]	85	35	
COC(=O)CCCNC(=O)C=Cc1ccccc1 [Compound 22b]	24	61	
CCOC(=O)CNC(=O)/C=C/c1ccc(OCc2ccc(Br)cc2)cc1 [Compound 11a, Ethyl (E)-(3-(4-((4-bromobenzyl)oxy)phenyl)acryloyl)glycinate]	38	6	
